No end group written: not given here.
Assays:
EL4 parental cells = assay: ADCC Cr51 release assay with sera of immunized mice, EL4 parental target cells; format: cell-based; conditions: C57BL/6 mice, IFA; sera 1:100; immunized serum lysis % minus naïve serum lysis %
Experimental: (§1) FIG. 2 is a set of graphs showing that immunization of WT mice with the EP1 peptide induced anti-tumor immunity. EP1 or positive control MCF-7/TAL6 cells formulated with incomplete Freund's adjuvant (IFA) were administered to mice twice at a two-week interval. (A) Anti-TAL6 antibody titers were determined by using cell-based ELISA. Antigen-specific antibody was calculated as: EL4-L6 (O.D.)−EL4 (O.D.). (B) TAL6-specific ADCC was determined in a Cr^51 release assay. The lysis percentage was calculated as immunized serum (lysis %)−naïve serum (lysis %). ***P<0.001.
(§2) To test whether the EP1 peptide could raise antibodies that bind native TAL6, the EP1 peptide or MCF-7/L6 cells (as positive control) were formulated with IFA/Th and administered to C57BL/6 mice. Sera from immunized mice were collected and the anti-TAL6 antibody titers were analyzed using cell-based ELISA. […]
(§3) Mice spleen cells were used as effector cells for the ADCC assay. […] After 6 hr, supernatants were harvested to measure the radioactivity using a gamma counter. Spontaneous release was measured in wells containing target cells alone. […] Percent cytotoxicity was determined according to the formula: percent lysis=100×(experimental ^51Cr release−spontaneous ^51Cr release)/(maximal ^51Cr release−spontaneous ^51Cr release).

[1] = test system: TAL6-expressed EL4 (EL4/L6) cells; assay: ADCC Cr51 release assay with sera of immunized mice, EL4/L6 target cells; format: cell-based; conditions: C57BL/6 mice, IFA; sera 1:100; immunized serum lysis % minus naïve serum lysis %
Experimental: as §1
FIG. 6 is a set of graphs showing that immunization with PELC/CpG/Th-A2-5-EP1 induced high levels of humoral and cellular immunity in HLA-A2 mice. The Th-A2-5-EP1 peptide was formulated with different adjuvants. […] (A) IFN-γ-secreting cells were determined using IFN-γ ELISpot assay. Results are expressed as mean SD. ***P<0.001. […] (D) TAL6-specific ADCC was determined by Cr^51 release assay. The lysis percentage was calculated as: immunized serum (lysis %)—naïve serum (lysis %) ***P<0.001.
as §2

native TAL6 = molecular target: T1, native TAL6 (Homo sapiens, UniProt P30408); assay: Anti-TAL6 antibody in sera of immunized mice, cell-based ELISA; format: in vivo, C57BL/6 mice; conditions: formulated with IFA/Th, sera 1:500, EL4-L6 O.D. minus EL4 O.D.
T1 construct: expressed in transfected cells; host or cells: EL-4 (mouse lymphoma) cells expressing TAL6 (EL-4/L6, EL4-L6)
T1 sequence (P30408 1-202): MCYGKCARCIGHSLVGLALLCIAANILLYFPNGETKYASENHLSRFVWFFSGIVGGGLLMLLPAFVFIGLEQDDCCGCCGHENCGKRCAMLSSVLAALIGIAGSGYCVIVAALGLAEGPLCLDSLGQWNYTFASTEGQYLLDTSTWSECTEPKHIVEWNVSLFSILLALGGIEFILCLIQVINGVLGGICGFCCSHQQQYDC
Experimental: as §1
To test whether the EP1 peptide could raise antibodies that bind native TAL6, the EP1 peptide or MCF-7/L6 cells (as positive control) were formulated with IFA/Th and administered to C57BL/6 mice. Sera from immunized mice were collected and the anti-TAL6 antibody titers were analyzed using cell-based ELISA. […] See FIG. 2, A. Whether EP1 immunization could induce antibody-dependent cellular cytotoxicity (ADCC) was also investigated. Sera (1:100) from mice immunized with either EP1 or MCF-7/L6 cells could kill TAL6-expressed EL4 (EL4/L6) cells but not EL4 parental cells (61.82%±6.12% v.s. 0.36%±0.96% and 65.54%±1.77% v.s. 11.41%±3.094%). […]
(§4) For antibody epitope mapping, L6, 9C7 and 1F4 Mabs were assayed by ELISA. […] Absorbance was measured at 450 nm.

B16-L6 cells = assay: Immunization then subcutaneous B16-L6 tumor challenge in WT mice; format: in vivo, C57BL/6 mice
Experimental: EP1 or positive control MCF-7/TAL6 cells formulated with incomplete Freund's adjuvant (IFA) were administered to mice twice at a two-week interval. (A) At 7 days after the final immunization, B16-L6 (2×10^4) cells were inoculated subcutaneously. Tumor growth was monitored 2-3 times per week. (B) The survival rate of the mice was determined.
Mice were immunized with 50 mg of EP1 formulated with the indicated adjuvants twice at a 14-day interval. (A) At 7 days after the second immunization, 2×10^4 of B16/TAL6 cells were injected subcutaneously. Tumor growth was monitored 2-3 times per week. Results obtained are expressed as mean SD (n=6). (B) Mouse survival rate was monitored. Results are expressed as means ±SD (*P<0.05.**P<0.01).
See FIG. 2, B. To investigate if the EP1 peptide could induce anti-tumor activity, mice were immunized with EP1 peptide and then challenged with B16-L6 cells (2×10^4/mouse) at 7 days after the final immunization.
The EP1 peptide was formulated with different adjuvants. Mice were immunized with 50 mg of the formulations twice at a 14-day interval. At 7 days after the second immunization, 2×10^4 B16/TAL6 cells were injected subcutaneously to the mice. Tumor growth was monitored 2-3 times per week.
HLA-A2 Tg mice were injected subcutaneously (s.c.) twice at a 2-week interval with peptide formulated in IFA, alum, DOTAP liposome, PELC nanoparticles, or TLR9 agonist CpG. Seven days after the second immunization, the B16-L6-A2 or B16-L6 cells (2×10^4) were inoculated s.c. on the opposite site of the peptide injection. Tumor sizes were measure 2-3 times per week. Tumor volume was calculated using the formula: tumor volume=length×width×width/2.

[2] = test system: anti-TAL6 monoclonal antibody L6; assay: ELISA epitope mapping: detection of coated TAL6 peptides by L6 mAb; format: binding; conditions: plate coated with peptide 10 μg/ml; antibody 1:500
Experimental: FIG. 1 includes (A) a scheme showing the overlapping peptides that cover the extracellular domains of TAL6: EL1 (residues 31 to 46 of SEQ ID NO: 1); EL2 (residues 114 to 164 of SEQ ID NO: 1); EP1 (SEQ ID NO: 4); EP2 (SEQ ID NO: 17); EP3 (SEQ ID NO: 18); and EP4 (SEQ ID NO: 19); and (B) a graph showing binding of the peptides to anti-TAL6 antibodies. A 96-well plate was coated with the indicated peptides (10 μg/ml) in each well. Three anti-TAL6 antibodies (1:500) were used to detect these peptides. CP: Control peptide.
FIG. 10 is a graph showing identification of residues in EP1 that are important for antibody binding using alanine scanning. The amino acid residues in EPI were individually replaced with alanine to generate EP1-1 to EP1-20 peptides. Monoclonal antibody L6 was used to detect these peptides. EP1 is a positive control and EP-3 is a negative control.
Three purified anti-TAL6 monoclonal antibodies (1F4, 9C7, L6) were used to detect the surface expression TAL6 on EL-4 (EL-4/L6) cells. See Chang et al., Int J Cancer, 116 (2005) 243-252. […] To further map the antibody-binding epitopes, five peptides (EL1 and EP1-4) that cover the EL1 and EL2 extracellular loops were used to determine the linear B cell epitopes using ELISA. […]
as §4

[3] = test system: lung cancer cell line H2981; assay: ADCC Cr51 release assay with sera of immunized mice, H2981 target cells; format: cell-based, human; conditions: formulated with PELC/CpG; sera collected at 6 weeks
Experimental: (§5) FIG. 9 is a set of graphs showing that peptide formulated with different adjuvants induced antibody-dependent cellular cytotoxicity (ADCC) against human cancer cells. Mice were immunized with peptide Th-EP1-A2-5 in various adjuvants twice at a two-week interval. Sera were collected at 6 weeks for ADCC assay. (A) Lung cancer cell line H2981 was used as a target. (B) Human breast cancer cell lines MCF7 and MCF7-TAL6 were used as targets. TAL6-specific ADCC was determined by Cr^51 release assay. The lysis percentage was calculated as: immunized serum (lysis %)−naïve serum (lysis %) ***P<0.001.
(§6) Mice were immunized with Th-A2-5-EP1 formulated with different adjuvants twice at a two-week interval. Sera was collected at 6 weeks for ADCC assay. […] TAL6-specific ADCC was determined by Cr51 release assay. The lysis percentage was calculated by subtracting the […].
as §3

[4] = test system: breast cancer cell lines MCF7 and MCF7-TAL6; assay: ADCC Cr51 release assay with sera of immunized mice, MCF7 and MCF7-TAL6 target cells; format: cell-based, human; conditions: formulated with PELC/CpG; sera collected at 6 weeks
Experimental: as §5, §6, §3

## GLAEGPLCLDSLGQWNYTFA [EP1]
EL4 parental cells
  ADCC lysis of EL4 parental cells: 0.36%±0.96%
[1]
  ADCC lysis of EL4/L6 cells: 61.82%±6.12%
Native TAL6
  anti-TAL6 antibody amount in sera versus vehicle (PBS): significantly higher amount of antibody
B16-L6 cells; formulated with IFA, immunized twice, B16-L6 2×10^4/mouse s.c. 7 days after final immunization
  tumor growth: significantly inhibited tumor growth
B16-L6 cells; formulated with PELC/CpG, 50 mg twice at 14-day interval, 2×10^4 B16/TAL6 cells s.c.
  anti-tumor effects (tumor growth, survival): induced anti-tumor effects
B16-L6 cells; formulated with different adjuvants, 50 mg twice at 14-day interval, 2×10^4 B16/TAL6 cells s.c.
  anti-tumor effect (tumor growth): exhibited an anti-tumor effect
[2]
  detection of the peptide by L6 mAb (ELISA): could be detected by L6 mAb

## AKFVAAWTLKAAAAAALLMLLPAFVAAAGLAEGPLCLDSLGQWNYTFA [Th-A2-5-EP1]
[3]
  ADCC cytotoxicity, rank among adjuvant formulations: strongest cytotoxicity
[4]
  ADCC cytotoxicity, rank among adjuvant formulations: strongest cytotoxicity

Source: US10995126B2, “Immunogenic peptide containing a b cell epitope of tumor associated antigen L6” (National Health Research Institutes, priority 2016, dated 2021)
